Experimental data from US4459290A, “C-23-Modified derivatives of OMT, pharmaceutical compositions and method of use” (priority 1982, dated 1984).
In brackets after ≈: the same amount, converted by molar mass. Where two headings read alike, the source gives them in different places.

Tests used:
Escherichia coli EC14 = assay: MIC, standard agar-dilution assay (Table V); type: cell-based; settings: Escherichia coli, EC14
Description: (§1) Especially noteworthy is the improved activity against gram-negative bacteria for several derivatives when compared to the activity of OMT. […] The MIC's in Tables V and VI were determined by standard agar-dilution assays. The MIC's in Table VII were obtained using a conventional broth-dilution microtiter test.

Escherichia coli N10 = assay: MIC, standard agar-dilution assay (Table V); type: cell-based; settings: Escherichia coli, N10
Description: as §1

[1] = test system: Klebsiella pneumoniae KAE; assay: MIC, standard agar-dilution assay (Table V); type: cell-based; settings: Klebsiella pneumoniae
Description: as §1

[2] = test system: Klebsiella pneumoniae X26; assay: MIC, standard agar-dilution assay (Table V); type: cell-based; settings: Klebsiella pneumoniae
Description: as §1

Shigella sonnei N9 = assay: MIC, standard agar-dilution assay (Table V); type: cell-based
Description: as §1

[3] = test system: Staphylococcus aureus S13E; assay: MIC, standard agar-dilution assay (Table V); type: cell-based; settings: Staphylococcus aureus, S13E
Description: as §1

[4] = test system: Staphylococcus aureus V41; assay: MIC, standard agar-dilution assay (Table V); type: cell-based; settings: Staphylococcus aureus, V41
Description: as §1

[5] = test system: Staphylococcus aureus X1.1; assay: MIC, standard agar-dilution assay (Table V); type: cell-based; settings: Staphylococcus aureus, X1.1
Description: as §1

[6] = test system: Staphylococcus aureus X400; assay: MIC, standard agar-dilution assay (Table V); type: cell-based; settings: Staphylococcus aureus
Description: as §1

[7] = test system: Staphylococcus epidermidis EPI1; assay: MIC, standard agar-dilution assay (Table V); type: cell-based; settings: Staphylococcus epidermidis
Description: as §1

[8] = test system: Staphylococcus epidermidis EPI2; assay: MIC, standard agar-dilution assay (Table V); type: cell-based; settings: Staphylococcus epidermidis
Description: as §1

Streptococcus Group 9960 = assay: MIC, standard agar-dilution assay (Table V); type: cell-based; settings: GROUP9960
Description: as §1

[9] = test system: Streptococcus Group D X66; assay: MIC, standard agar-dilution assay (Table V); type: cell-based
Description: as §1

Escherichia coli TEM = assay: MIC, standard agar-dilution assay (Table V); type: cell-based; settings: Escherichia coli
Description: (§2) The MIC's in Tables V and VI were determined by standard agar-dilution assays. The MIC's in Table VII were obtained using a conventional broth-dilution microtiter test.

[10] = test system: Haemophilus influenzae Holt; assay: MIC, standard agar-dilution assay (Table V); type: cell-based; settings: Haemophilus influenzae
Description: as §2

[11] = test system: Haemophilus influenzae R252; assay: MIC, standard agar-dilution assay (Table V); type: cell-based; settings: Haemophilus influenzae
Description: as §2

[12] = test system: Streptococcus pyogenes C203; assay: MIC, standard agar-dilution assay (Table V); type: cell-based; settings: Streptococcus pyogenes
Description: as §2

[13] = test system: Streptococcus pneumoniae Park I; assay: microbe, parasite or virus in culture; type: cell-based; settings: Streptococcus pneumoniae
Description: as §1

Mycoplasma gallisepticum = assay: MIC, broth-dilution microtiter test (Table VII); type: cell-based; settings: Mycoplasmoides gallisepticum
Description: as §1

Mycoplasma hyorhinis = assay: MIC, broth-dilution microtiter test (Table VII); type: cell-based
Description: as §1

Mycoplasma synoviae = assay: MIC, broth-dilution microtiter test (Table VII); type: cell-based; settings: Mycoplasmopsis synoviae
Description: as §1

[14] = test system: Pasteurella hemolytica 22C; assay: MIC, broth-dilution microtiter test (Table VII); type: cell-based; settings: Pasteurella, P. hemolytica 22C, read-out: MIC
Description: as §1

[15] = test system: Pasteurella hemolytica 23C; assay: MIC, broth-dilution microtiter test (Table VII); type: cell-based; settings: Pasteurella, P. hemolytica 23C, read-out: MIC
Description: as §1

[16] = test system: Pasteurella hemolytica 41D; assay: MIC, broth-dilution microtiter test (Table VII); type: cell-based; settings: Pasteurella, P. hemolytica 41D, read-out: MIC
Description: as §1

[17] = test system: Pasteurella multocida 17E; assay: MIC, broth-dilution microtiter test (Table VII); type: cell-based; settings: Pasteurella multocida
Description: as §1

[18] = test system: Pasteurella multocida 22A; assay: MIC, broth-dilution microtiter test (Table VII); type: cell-based; settings: Pasteurella multocida; P. multocida 22A; broth-dilution microtiter; read-out: MIC
Description: as §1

[19] = test system: Pasteurella multocida 40G; assay: MIC, broth-dilution microtiter test (Table VII); type: cell-based; settings: Pasteurella multocida
Description: as §1

[20] = test system: Pasteurella multocida 60A; assay: MIC, broth-dilution microtiter test (Table VII); type: cell-based; settings: Pasteurella multocida
Description: as §1

[21] = test system: Pasteurella multocida 68C; assay: MIC, broth-dilution microtiter test (Table VII); type: cell-based; settings: Pasteurella multocida
Description: as §1

Staphylococcus aureus = assay: MIC, broth-dilution microtiter test (Table VII); type: cell-based; settings: Staphylococcus aureus
Description: as §1

Streptococcus sp. 80 = assay: MIC, broth-dilution microtiter test (Table VII); type: cell-based; settings: Streptococcus sp. 80; broth-dilution microtiter; read-out: MIC
Description: as §1

[22] = test system: Streptococcus pyogenes C203; assay: ED50 in mice experimentally infected with S. pyogenes C203 (Table VIII); type: in vivo
Description: The C-23 modified derivatives of OMT of this invention have shown in vivo antimicrobial activity against experimental infections. When two doses of test compound were administered to mice experimentally infected with a gram-positive bacterium, S. pyogenes C203, the activity observed was measured as an ED50 value [effective dose in mg/kg to protect 50% of the test animals: see Warren Wick, et al., J. Bacteriol. 81, 233-235 (1961)].

Pasteurella multocida = assay: Protection of one-day-old chicks against Pasteurella multocida infection (Table IX); type: in vivo; settings: subcutaneous 30 mg/kg × 2, 1 and 4 hours post-challenge
Description: The C-23 modified derivatives of OMT have also shown in vivo antibacterial activity against infections induced by gram-negative bacteria. Table IX summarizes the results of tests in which illustrative compounds were evaluated against Pasteurella infections in one-day-old chicks. The compounds were administered by subcutaneous injection at a dosage of 30 mg/kg, 1 and 4 hours post-challenge of the chicks with Pasteurella multocida (0.1 ml of a twenty-hour tryptose broth culture of an avian P. multocida given subcutaneously). In the tests, all ten non-medicated infected chicks died within 24 hours of Pasteurella challenge.

[23] = M. synoviae, broth-dilution microtiter, read-out: MIC
[24] = P. multocida 40G, broth-dilution microtiter, read-out: MIC
[25] = C203, sc, mice, subcutaneous, doses given 1 and 4 hours postinfection, read-out: ED50, Subcutaneous
[26] = S. pyogenes C203, agar dilution, read-out: MIC
[27] = S. pneumoniae Park I, agar dilution, read-out: MIC

Compound	MIC (Escherichia coli EC14) [µg/mL]	MIC (Escherichia coli N10) [µg/mL]	MIC [1] [µg/mL]	MIC ([2]; X26) [µg/mL]	MIC (Shigella sonnei N9) [µg/mL]	MIC [3] [µg/mL]	MIC [4] [µg/mL]	MIC [5] [µg/mL]	MIC ([6]; X400) [µg/mL]	MIC ([7]; EPI1) [µg/mL]	MIC ([8]; EPI2) [µg/mL]	MIC (Streptococcus Group 9960) [µg/mL]	MIC [9] [µg/mL]	MIC [10] [µg/mL]	MIC [14] [µg/mL]	MIC [15] [µg/mL]	MIC [16] [µg/mL]	MIC [18] [µg/mL]	MIC (Streptococcus sp. 80) [µg/mL]	Number of deaths/number treated (Pasteurella multocida)	other results
CCC1OC(=O)CC(O)C(C)C(OC2OC(C)C(O)C(N(C)C)C2O)C(CC=O)CC(C)C(=O)C=CC(C)=CC1CNC(=O)Cc1ccccc1 (stereo not drawn) [Compound 10, 23-Deoxy-23-N-(phenylacetyl)amino-OMT]	> 128	> 128	> 128	8 (≈ 11.2 µM)	> 128	0.5 (≈ 0.699 µM)	1 (≈ 1.4 µM)	0.5 (≈ 0.699 µM)	1 (≈ 1.4 µM)	0.25 (≈ 0.35 µM)	1 (≈ 1.4 µM)	0.5 (≈ 0.699 µM)	0.5 (≈ 0.699 µM)	2 (≈ 2.8 µM)	12.5 (≈ 17.5 µM)	12.5 (≈ 17.5 µM)	25 (≈ 35 µM)	25 (≈ 35 µM)	0.19 (≈ 0.266 µM)	3/10	MIC (Escherichia coli TEM; E. coli TEM, agar dilution, read-out: MIC): 32 µg/mL (≈ 44.8 µM); MIC ([11]; R252): 2 µg/mL (≈ 2.8 µM); MIC ([12]; C203): 0.25 µg/mL (≈ 0.35 µM); MIC [13]: 0.25 µg/mL (≈ 0.35 µM); MIC (Mycoplasma gallisepticum): 1.56 µg/mL (≈ 2.18 µM); MIC (Mycoplasma hyorhinis): 50 µg/mL (≈ 69.9 µM); MIC (Mycoplasma synoviae; [23]): 0.19 µg/mL (≈ 0.266 µM); MIC ([17]; 17E): 3.12 µg/mL (≈ 4.36 µM); MIC [19, 24]: 12.5 µg/mL (≈ 17.5 µM); MIC ([20]; 60A): 3.12 µg/mL (≈ 4.36 µM); MIC ([21]; 68C): 1.56 µg/mL (≈ 2.18 µM); MIC (Staphylococcus aureus): 0.78 µg/mL (≈ 1.09 µM); ED50 ([22]; C203, po, read-out: ED50, Oral): > 100 mg/kg; ED50 [22, 25]: 5.8 mg/kg
CCC1OC(=O)CC(O)C(C)C(OC2OC(C)C(O)C(N(C)C)C2O)C(CC=O)CC(C)C(=O)C=CC(C)=CC1CNC(=O)[C@H](NC(=O)OC(C)(C)C)c1ccccc1 (single isomer, unassigned) [Compound 11, 23-Deoxy-23-[(D)-(-)-(N-t-BOC-phenylglycyl)amino]-OMT]	> 128	> 128	> 128	–	> 128	2 (≈ 2.41 µM)	2 (≈ 2.41 µM)	1 (≈ 1.2 µM)	–	–	–	–	–	8 (≈ 9.64 µM)	25 (≈ 30.1 µM)	25 (≈ 30.1 µM)	50 (≈ 60.2 µM)	12.5 (≈ 15.1 µM)	0.78 (≈ 0.94 µM)	10/10	MIC ([2]; K. pneumoniae X26, agar dilution, read-out: MIC): 16 µg/mL (≈ 19.3 µM); MIC ([6]; S. aureus X400, methicillin-resistant strain, agar dilution, read-out: MIC): 4 µg/mL (≈ 4.82 µM); MIC ([7]; S. epidermidis EPI1, agar dilution, read-out: MIC): 1 µg/mL (≈ 1.2 µM); MIC ([8]; S. epidermidis EPI2, agar dilution, read-out: MIC): 4 µg/mL (≈ 4.82 µM); MIC (Streptococcus Group 9960; Streptococcus Group 9960, agar dilution, read-out: MIC): 2 µg/mL (≈ 2.41 µM); MIC ([9]; Streptococcus Group D X66, agar dilution, read-out: MIC): 2 µg/mL (≈ 2.41 µM); MIC (Escherichia coli TEM): > 128 µg/mL; MIC ([11]; R252): 8 µg/mL (≈ 9.64 µM); MIC [12, 26]: 0.5 µg/mL (≈ 0.602 µM); MIC [13, 27]: 0.25 µg/mL (≈ 0.301 µM); MIC (Mycoplasma gallisepticum; M. gallisepticum, broth-dilution microtiter, read-out: MIC): 0.78 µg/mL (≈ 0.94 µM); MIC (Mycoplasma hyorhinis; M. hyorhinis, broth-dilution microtiter, read-out: MIC): > 50 µg/mL; MIC (Mycoplasma synoviae; [23]): 0.78 µg/mL (≈ 0.94 µM); MIC ([17]; P. multocida 17E, bovine isolate, broth-dilution microtiter, read-out: MIC): 6.25 µg/mL (≈ 7.53 µM); MIC [19, 24]: 12.5 µg/mL (≈ 15.1 µM); MIC ([20]; P. multocida 60A, avian isolate, broth-dilution microtiter, read-out: MIC): 12.5 µg/mL (≈ 15.1 µM); MIC ([21]; P. multocida 68C, broth-dilution microtiter, read-out: MIC): 6.25 µg/mL (≈ 7.53 µM); MIC (Staphylococcus aureus; S. aureus, broth-dilution microtiter, read-out: MIC): 3.12 µg/mL (≈ 3.76 µM)
CCC1OC(=O)CC(O)C(C)C(OC2OC(C)C(O)C(N(C)C)C2O)C(CC=O)CC(C)C(=O)C=CC(C)=CC1CN (stereo not drawn) [Compound 9, 23-Deoxy-23-amino-OMT]	> 128	> 128	> 128	16 (≈ 26.8 µM)	> 128	8 (≈ 13.4 µM)	8 (≈ 13.4 µM)	8 (≈ 13.4 µM)	8 (≈ 13.4 µM)	8 (≈ 13.4 µM)	8 (≈ 13.4 µM)	8 (≈ 13.4 µM)	8 (≈ 13.4 µM)	–	12.5 (≈ 20.9 µM)	12.5 (≈ 20.9 µM)	25 (≈ 41.9 µM)	25 (≈ 41.9 µM)	1.56 (≈ 2.61 µM)	0/10	MIC (Escherichia coli TEM): > 128 µg/mL; MIC ([11]; H. influenzae R252, ampicillin-resistant strain, agar dilution, read-out: MIC): 1 µg/mL (≈ 1.68 µM); MIC [12, 26]: 2 µg/mL (≈ 3.35 µM); MIC [13, 27]: 1 µg/mL (≈ 1.68 µM); MIC (Mycoplasma gallisepticum): 0.78 µg/mL (≈ 1.31 µM); MIC (Mycoplasma hyorhinis): 12.5 µg/mL (≈ 20.9 µM); MIC (Mycoplasma synoviae): 0.78 µg/mL (≈ 1.31 µM); MIC ([17]; 17E): 6.25 µg/mL (≈ 10.5 µM); MIC ([19]; 40G): 12.5 µg/mL (≈ 20.9 µM); MIC ([20]; 60A): 6.25 µg/mL (≈ 10.5 µM); MIC ([21]; 68C): 12.5 µg/mL (≈ 20.9 µM); MIC (Staphylococcus aureus): 12.5 µg/mL (≈ 20.9 µM); ED50 ([22]; C203, po, read-out: ED50, Oral): > 100 mg/kg; ED50 [22, 25]: 2.6 mg/kg
